Assay results from EP1102769B1, “TRICYCLIC CARBOXAMIDES” (SmithKline Beecham plc, priority 1998, dated 2000).

Test system: maximal (tonic hindlimb extension) electroshock seizures in male rats
Assay: Maximal electroshock seizure (MEST) threshold test, rat model
Format: in vivo, rats (Sprague Dawley)
Settings: 2 mg/kg p.o., suspension in methyl cellulose, one hour post dosing, statistically significant, percentage increase in CC50 compared to control
Experimental: The maximal electroshock seizure (MEST) threshold test in rodents is particularly sensitive for detecting potential anticonvulsant properties ^1. In this model, anticonvulsant agents elevate the threshold to electrically-induced seizures whilst proconvulsants lower the seizure threshold.
Mice (naive male, Charles River, U.K. CD-1 strain, 25 - 30g) are randomly assigned to groups of 10 - 20 and dosed orally or intraperitoneally at a dose volume of 10 ml/kg with various doses of compound (0.3 - 300 mg/kg) or vehicle. Mice are then subjected at 30 or 60 min post dose to a single electroshock (0.1 sec, 50Hz, sine wave form) administered via corneal electrodes. The mean current and standard error required to induce a tonic seizure in 50% (CC50) of the mice in a particular treatment group is determined by the 'up and down' method of Dixon and Mood (1948)^2. Statistical comparisons between vehicle- and drug-treated groups are made using the method of Litchfield and Wilcoxon (1949)^3. […]
The threshold for maximal (tonic hindlimb extension) electroshock seizures in male rats (Sprague Dawley, 80 - 150g, 6 weeks old) was determined by a Hugo Sachs Electronik stimulator which delivered a constant current (0.3 sec duration; from 1-300mA in steps of 5-20mA). . […]
The percentage increase or decrease in CC50 for each group compared to the control is calculated. […]

Compound: COc1ccc(C(=O)Nc2ccc3c(c2)C2CCCN2CC3)cc1C(F)(F)F (racemic) [Example 3, (+/-)N-(1,2,3,5,6,10b-hexahydropyrrolo[2,1-a]isoquinolin-9-yl)-4-methoxy-3-trifluoromethylbenzamide]
- increase in seizure threshold: 426%
